# Patent US9005667B1, “Treating leukemia with a whole, leech saliva extract” (priority 2012, dated 2015)
# Legend:
# [1] = system: Cryptococcus neoformans ATCC90112; assay: Kirby-Bauer disc diffusion; assay type: cell-based; settings: reference antibiotic disc (100unit)
# From the text: (§1) Experimental procedures include the following steps: • 1.
# [2] = system: Candida albicans ATCC10231; assay: Kirby-Bauer disc diffusion; assay type: cell-based; settings: reference antibiotic disc (100unit)
# From the text: as §1
# [3] = system: alloxan induced-diabetic rats; assay: Antihyperglycemic activity: fall in fasting blood glucose in alloxan induced-diabetic rats; assay type: in vivo, rat
# Salmonella typhi = assay: Kirby-Bauer disc diffusion; assay type: cell-based; settings: reference antibiotic disc (5 μg)
compound,measurement,setting,value
"C[C@@H]1[C@H](O)[C@@H](C)/C=C/C=C/CC/C=C/C=C/C=C/C=C/C(O[C@H]2O[C@H](C)[C@@H](O)[C@H](N)[C@@H]2O)CC2O[C@](O)(CC(O)C(O)CCC(O)CC(O)CC(O)CC(=O)O[C@H]1C)CC(O)C2C(=O)O (stereo partly drawn) [Nystatin, nystatin]","Zone of inhibition, C. neoformance",[1],9 mm
same,"Zone of inhibition, C. albicans",[2],10 mm
insulin: insulin from bovine pancreas (≧27 units/mg),FBG,"[3]; all insulin-injected rats, after two hours of injection (p<0.001)",sharp significant decrease
same,FBG difference between normal rats and treated diabetic rats,[3]; at either dose,No significant difference
same,FBG,"[3]; insulin 10 units/kg b.w, after 8 hours of treatment",returned to the diabetic state
"O=C(O)c1cn(C2CC2)c2cc(N3CCNCC3)c(F)cc2c1=O [Cipro, ciprofloxacin]","Zone of inhibition, Sal. typhi",Salmonella typhi,35 mm
